Laboratory results taken from patent US11911396B2, “Use of compound in preparation of drug for treating cerebral small vessel disease” (GUANGZHOU CELLPROTEK PHARMACEUTICAL CO., LTD, priority 2017, dated 2024).

What was measured:
CD163 = experiment: Immunofluorescence of CD163 in prefrontal cortex brain tissue, acute hypobaric hypoxia model; assay type: in vivo, cynomolgus monkeys; settings: FIGS. 5A and 5B
Description: (§1) FIG. 5. […] A. Immunofluorescence imaging of CD163 and Iba-1 in the brain tissue of cynomolgus monkeys. B. Statistics of relative fluorescence intensity of CD163 and Iba-1. C. Correlation analysis of relative fluorescence intensity of CD163 and Iba-1. NN: Normobaric Normoxia group; HH: Hypobaric Hypoxia group; HH+Triol: Hypobaric Hypoxia with Triol administration group; HH+PROG: Hypobaric Hypoxia with progesterone administration group. One-way ANOVA analysis and Dunnutt's t test were used to perform statistical tests, and in the latter each group was compared with the HH group, ***, p<0.001.
(§2) The thickness of paraffin sections was 5 μm. For fresh paraffin sections, the sections were dried at 37° C. overnight and then dried at 55° C. for 30 minutes. The sections were quickly placed in xylene for dewaxing. After fully dewaxing with xylene for 10 min for 3 times, absolute ethanol-95% ethanol-90% ethanol-80% ethanol-70% ethanol-50% ethanol-ddH2O were successively used for gradient rehydration. After rehydration, the sections were placed in EDTA antigen repair solution for microwave high temperature repair. After the repair was completed, it was allowed naturally cool down to room temperature. […] NIS-Elements Analysis software was used to analyze the fluorescence intensity of confocal images, which was then normalized with the fluorescence intensity per unit area according to the built-in scale. […]

Iba1 = experiment: Immunofluorescence of Iba1 in prefrontal cortex brain tissue, acute hypobaric hypoxia model; assay type: in vivo, cynomolgus monkeys; settings: FIG. 5
Description: as §1, §2

With CC(=O)[C@H]1CC[C@H]2[C@@H]3CCC4=CC(=O)CC[C@]4(C)[C@H]3CC[C@]12C [progesterone, reference compound] the “down-regulation of CD163 expression caused by acute hypobaric hypoxia” value (CD163) was “did not cancel the inhibition” and the Iba1 expression (Iba1) was “increased”.
